Laboratory results reported in PubChem BioAssay (NCI).
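How tested: cells in 96-well plates exposed to compound for 48 hours at five concentrations. Abbreviation: GI50, concentration required for 50% inhibition of growth. TGI: concentration producing complete growth inhibition.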

Columns and labels:
Assay in all cases: inhibition of tumour cell growth, NCI panel, 48 h
A549 NSCLC = system: A549 NSCLC
SNB-75 CNS = system: SNB-75 CNS
SF-268 CNS = system: SF-268 CNS
SF-539 CNS = system: SF-539 CNS
MDA-MB-231 breast = system: MDA-MB-231 breast
HL-60(TB) leukemia = system: HL-60(TB) leukemia
SN12C renal = system: SN12C renal
NCI-H23 lung = system: NCI-H23 lung
SNB-19 CNS = system: SNB-19 CNS
RPMI-8226 leukemia = system: RPMI-8226 leukemia
HOP-62 NSCLC = system: HOP-62 NSCLC
IGROV1 ovarian = system: IGROV1 ovarian
BT-549 breast = system: BT-549 breast
HCT-15 colon = system: HCT-15 colon
TK-10 renal = system: TK-10 renal
ACHN renal = system: ACHN renal
SW-620 colon = system: SW-620 colon
NCI/ADR-RES ovarian = system: NCI/ADR-RES ovarian
OVCAR-3 ovarian = system: OVCAR-3 ovarian
SF-295 CNS = system: SF-295 CNS
HCC-2998 colon = system: HCC-2998 colon
SK-MEL-2 melanoma = system: SK-MEL-2 melanoma
UO-31 renal = system: UO-31 renal
CAKI-1 renal = system: CAKI-1 renal
PC-3 prostate = system: PC-3 prostate
U251 CNS = system: U251 CNS
NCI-H460 lung = system: NCI-H460 lung
NCI-H522 lung = system: NCI-H522 lung
MDA-MB-435 = system: MDA-MB-435
T-47D breast = system: T-47D breast
MALME-3M melanoma = system: MALME-3M melanoma
A498 renal = system: A498 renal
CCRF-CEM leukemia = system: CCRF-CEM leukemia
UACC-62 melanoma = system: UACC-62 melanoma
DU-145 prostate = system: DU-145 prostate
OVCAR-5 ovarian = system: OVCAR-5 ovarian
OVCAR-4 ovarian = system: OVCAR-4 ovarian
M14 melanoma = system: M14 melanoma
SR leukemia = system: SR leukemia
OVCAR-8 ovarian = system: OVCAR-8 ovarian
UACC-257 melanoma = system: UACC-257 melanoma
MOLT-4 leukemia = system: MOLT-4 leukemia
SK-OV-3 ovarian = system: SK-OV-3 ovarian
LOX IMVI melanoma = system: LOX IMVI melanoma
K-562 leukemia = system: K-562 leukemia
HCT-116 colon = system: HCT-116 colon
KM12 colon = system: KM12 colon
EKVX NSCLC = system: EKVX NSCLC
HS 578T breast = system: HS 578T breast
RXF 393 renal = system: RXF 393 renal
SK-MEL-5 melanoma = system: SK-MEL-5 melanoma
SK-MEL-28 melanoma = system: SK-MEL-28 melanoma
COLO 205 colon = system: COLO 205 colon
NCI-H226 lung = system: NCI-H226 lung
MCF7 breast = system: MCF7 breast
786-0 renal = system: 786-0 renal

## ClCc1ccccc1Cn1cnc2c(Cl)nc(Cl)nc21
A549 NSCLC
  GI50: 2.82 µM
  TGI: 8.8 µM
SNB-75 CNS
  GI50: 0.892 µM
  TGI: 2.14 µM
SF-268 CNS
  GI50: 0.115 µM
  TGI: 0.556 µM
SF-539 CNS
  GI50: 0.17 µM
  TGI: 0.467 µM
MDA-MB-231 breast
  TGI: 0.295 µM
HL-60(TB) leukemia
  GI50: 0.181 µM
  TGI: 1.35 µM
SN12C renal
  GI50: 0.362 µM
  TGI: 1.02 µM
NCI-H23 lung
  GI50: 0.485 µM
  TGI: 1.02 µM
SNB-19 CNS
  GI50: 1.04 µM
  TGI: 2.24 µM
RPMI-8226 leukemia
  GI50: 0.139 µM
  TGI: 0.501 µM
HOP-62 NSCLC
  GI50: 1.38 µM
  TGI: 2.78 µM
IGROV1 ovarian
  GI50: 0.996 µM
  TGI: 2.53 µM
BT-549 breast
  GI50: 0.46 µM
  TGI: 1.5 µM
HCT-15 colon
  TGI: 0.139 µM
TK-10 renal
  GI50: 1.02 µM
  TGI: 2.49 µM
ACHN renal
  GI50: 0.0785 µM
  TGI: 0.316 µM
SW-620 colon
  GI50: < 0.0392 µM
  TGI: 0.0647 µM
NCI/ADR-RES ovarian
  GI50: 0.552 µM
  TGI: 1.33 µM
OVCAR-3 ovarian
  GI50: 0.547 µM
  TGI: 1.17 µM
SF-295 CNS
  GI50: 1.58 µM
  TGI: 3.11 µM
HCC-2998 colon
  GI50: 0.315 µM
  TGI: 1.32 µM
SK-MEL-2 melanoma
  GI50: 2.25 µM
  TGI: 4.72 µM
UO-31 renal
  GI50: 0.379 µM
  TGI: 1.44 µM
CAKI-1 renal
  GI50: 0.728 µM
  TGI: 1.59 µM
PC-3 prostate
  GI50: 0.425 µM
  TGI: 1.61 µM
U251 CNS
  GI50: 0.222 µM
  TGI: 0.602 µM
NCI-H460 lung
  GI50: 2.29 µM
  TGI: 7.15 µM
NCI-H522 lung
  GI50: 0.964 µM
  TGI: 2.6 µM
MDA-MB-435
  GI50: 1.64 µM
  TGI: 3.27 µM
T-47D breast
  GI50: 1.99 µM
  TGI: 5.46 µM
MALME-3M melanoma
  GI50: 1.22 µM
  TGI: 3.59 µM
A498 renal
  GI50: 2.05 µM
  TGI: 4 µM
CCRF-CEM leukemia
  GI50: 0.0313 µM
  TGI: 0.0939 µM
UACC-62 melanoma
  GI50: 0.408 µM
  TGI: 0.865 µM
DU-145 prostate
  GI50: 0.207 µM
  TGI: 0.743 µM
OVCAR-5 ovarian
  GI50: 0.471 µM
  TGI: 1.21 µM
OVCAR-4 ovarian
  GI50: 1.03 µM
  TGI: 2.55 µM
M14 melanoma
  GI50: 0.453 µM
  TGI: 1.07 µM
SR leukemia
  GI50: 1.77 µM
  TGI: 4.93 µM
OVCAR-8 ovarian
  GI50: 1.44 µM
  TGI: 2.98 µM
UACC-257 melanoma
  GI50: 1.9 µM
  TGI: 4 µM
MOLT-4 leukemia
  GI50: 0.574 µM
  TGI: 1.59 µM
SK-OV-3 ovarian
  GI50: 1.95 µM
  TGI: 3.7 µM
LOX IMVI melanoma
  GI50: < 0.0395 µM
  TGI: 0.169 µM
K-562 leukemia
  GI50: 0.189 µM
  TGI: 1.94 µM
HCT-116 colon
  GI50: 0.0605 µM
  TGI: 0.188 µM
KM12 colon
  GI50: 1.48 µM
  TGI: 2.95 µM
EKVX NSCLC
  GI50: 0.332 µM
  TGI: 0.811 µM
HS 578T breast
  GI50: 1.19 µM
  TGI: 3.55 µM
RXF 393 renal
  GI50: 1.46 µM
  TGI: 3.01 µM
SK-MEL-5 melanoma
  GI50: 0.104 µM
  TGI: 0.501 µM
SK-MEL-28 melanoma
  GI50: 0.942 µM
  TGI: 2.48 µM
COLO 205 colon
  GI50: 0.163 µM
  TGI: 0.362 µM
NCI-H226 lung
  GI50: 0.603 µM
  TGI: 1.59 µM
MCF7 breast
  GI50: 0.118 µM
  TGI: > 100 µM
786-0 renal
  GI50: 0.167 µM
  TGI: 0.634 µM
